Experimental data from the supplement of paper PMC11061612.

Assays:
Assay in all cases: Bliss excess, mean over the matrix (fraction); higher = more synergy
[1] = test system: BL-41 (Burkitt's Lymphoma)
How it was run: (§1)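 After 24 hours at 37°C and 5% CO2 in 1536-well plates, cells in DMEM/F12 or RPMI plus 10% FBS received two-drug dose matrices for 72 hours. Viability came from CellTiter-Glo 2.0 luminescence and was scaled as inhibition, anchored at 0 by vehicle wells and at 1 by blank wells. Combination Emax is taken as the second-highest inhibition in the matrix, and Bliss excess as the observed combination effect less EA + EB − EA·EB, with EA and EB the single-agent effects.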

[2] = test system: CAMA-1 (Breast Carcinoma)
How it was run: as §1

[3] = test system: DND-41 (T-Lymphoblastic Leukemia)
How it was run: as §1

[4] = test system: ES1 (Ewing's Sarcoma)
How it was run: as §1

[5] = test system: ES8 (Ewing's Sarcoma)
How it was run: as §1

[6] = test system: HDQ-P1 (Breast Carcinoma)
How it was run: as §1

[7] = test system: KCL-22 (Chronic Myelogenous Leukemia)
How it was run: as §1

[8] = test system: L-540 (Hodgkin's Lymphoma)
How it was run: as §1

[9] = test system: LN-18 (Glioblastoma)
How it was run: as §1

[10] = test system: MEL-JUSO (Melanoma)
How it was run: as §1

[11] = test system: MFM-223 (Breast Carcinoma)
How it was run: as §1

[12] = test system: MS751 (Cervical Carcinoma)
How it was run: as §1

[13] = test system: NCI-H2818 (Mesothelioma)
How it was run: as §1

[14] = test system: NCI-H847 (Small Cell Lung Carcinoma)
How it was run: as §1

[15] = test system: SR (Other Blood Carcinomas)
How it was run: as §1

[16] = test system: SU-DHL-8 (B-Cell Non-Hodgkin's Lymphoma)
How it was run: as §1

[17] = test system: SW837 (Colorectal Carcinoma)
How it was run: as §1

[18] = test system: TE-6 (Esophageal Squamous Cell Carcinoma)
How it was run: as §1

[19] = test system: U251 (Low Grade Glioma)
How it was run: as §1

[20] = test system: WM-115 (Melanoma)
How it was run: as §1

SMILES | Bliss excess [1] | Bliss excess [2] | Bliss excess [3] | Bliss excess [4] | Bliss excess [5] | Bliss excess [6] | Bliss excess [7] | Bliss excess [8] | Bliss excess [9] | Bliss excess [10] | Bliss excess [11] | Bliss excess [12] | Bliss excess [13] | Bliss excess [14] | Bliss excess [15] | Bliss excess [16] | Bliss excess [17] | Bliss excess [18] | Bliss excess [19] | Bliss excess [20]
CC1(C)CCC(CN2CCN(c3ccc(C(=O)NS(=O)(=O)c4ccc(NCC5CCOCC5)c([N+](=O)[O-])c4)c(Oc4cnc5[nH]ccc5c4)c3)CC2)=C(c2ccc(Cl)cc2)C1 [Venetoclax] + Cn1cnc2c(F)c(Nc3ccc(Br)cc3Cl)c(C(=O)NOCCO)cc21 [Selumetinib] (first compound max 1 µM, 7x7, partner max 3 µM) | 0.0065 | -0.0332 | -0.0048 | -0.0068 | -0.0411 | -0.0377 | -0.0032 | -0.0159 | -0.0088 | -0.0481 | -0.006 | 0.0072 | -0.0491 | -0.0428 | 0.0026 | -0.0738 | -0.0129 | 0.0203 | -0.0521 | -0.0472
Cc1cc2ncnn2cc1Nc1ncc2c(n1)n(C1CCOCC1)c(=O)n2C [AZD7648] + CN(C)CCCOc1ccc(-c2ccc3ncc4c(c3c2)n(C2CCOCC2)c(=O)n4C)cn1 [AZD0156] (first compound max 10 µM, 7x7, partner max 1 µM) | 0.0154 | -0.0238 | 0.0251 | 0.0136 | 0.0803 | 0.0157 | 0.0542 | -0.0074 | 0.0013 | -0.0029 | -0.0325 | 0.0217 | -0.0055 | -0.0113 | 0.0078 | 0.016 | 0.0255 | -0.0515 | 0.0214 | -0.0098
CC1(C)CCC(CN2CCN(c3ccc(C(=O)NS(=O)(=O)c4ccc(NCC5CCOCC5)c([N+](=O)[O-])c4)c(Oc4cnc5[nH]ccc5c4)c3)CC2)=C(c2ccc(Cl)cc2)C1 [Venetoclax] + CN(C)CCCOc1ccc(-c2ccc3ncc4c(c3c2)n(C2CCOCC2)c(=O)n4C)cn1 [AZD0156] (first compound max 1 µM, 7x7, partner max 1 µM) | 0.0008 | -0.0161 | 0.0278 | 0.0421 | 0.0212 | -0.0292 | 0.0042 | 0.0137 | -0.0488 | -0.0128 | -0.0313 | 0.0165 | -0.0501 | 0.037 | -0.0266 | -0.0201 | -0.0067 | 0.0055 | -0.026 | -0.0314
Cc1cc2ncnn2cc1Nc1ncc2c(n1)n(C1CCOCC1)c(=O)n2C [AZD7648] + C[C@@H]1COCCN1C2=NC(=NC(=C2)C3(CC3)[S@](=N)(=O)C)C4=C5C=CNC5=NC=C4 [AZD6738] (first compound max 10 µM, 7x7, partner max 10 µM) | -0.0052 | -0.0631 | -0.01 | -0.0001 | 0.0071 | -0.0229 | 0.0341 | -0.0031 | -0.0084 | 0.0289 | -0.0127 | 0.0606 | 0.0738 | 0.0519 | 0.0148 | -0.0136 | -0.0077 | 0.0697 | 0.0581 | 0.0145
CCN(CCO)CCCOc1ccc2c(Nc3cc(CC(=O)Nc4cccc(F)c4)[nH]n3)ncnc2c1 [AZD2811] + C[C@@H]1COCCN1C2=NC(=NC(=C2)C3(CC3)[S@](=N)(=O)C)C4=C5C=CNC5=NC=C4 [AZD6738] (first compound max 1 µM, 7x7, partner max 10 µM) | -0.0647 | -0.0417 | -0.018 | 0.0413 | -0.0554 | -0.0597 | 0.0285 | -0.0078 | -0.0151 | -0.0644 | -0.0251 | 0.041 | -0.0925 | -0.0089 | -0.0533 | 0.134 | -0.0252 | -0.0175 | -0.0255 | -0.0345
Cc1c2c(nn1C)CSCc1cc(n(C)n1)CSc1cc(c3ccccc3c1)OCCCc1c(C(=O)O)n(C)c3c-2c(Cl)ccc13 [AZD5991] + C1CN(CCC1(C(=O)N[C@@H](CCO)C2=CC=C(C=C2)Cl)N)C3=NC=NC4=C3C=CN4 [Capivasertib] (first compound max 1 µM, 7x7, partner max 3 µM) | 0.0066 | 0.0993 | 0.0038 | 0.0708 | 0.0627 | 0.0072 | 0.0067 | 0.0152 | 0.0306 | -0.0203 | 0.0005 | 0.0425 | 0.0054 | 0.0714 | 0.0447 | -0.0225 | -0.0191 | -0.0177 | 0.0231 | 0.0165
CCN(CCO)CCCOc1ccc2c(Nc3cc(CC(=O)Nc4cccc(F)c4)[nH]n3)ncnc2c1 [AZD2811] + O=C(c1cc(Cc2n[nH]c(=O)c3ccccc23)ccc1F)N1CCN(C(=O)C2CC2)CC1 [Olaparib] (first compound max 1 µM, 7x7, partner max 10 µM) | -0.121 | -0.0308 | -0.0059 | 0.0749 | -0.0296 | 0.0076 | 0.0534 | 0.0113 | -0.0299 | -0.0015 | 0.0058 | -0.0068 | -0.0415 | -0.0464 | -0.0064 | 0.102 | 0.0027 | -0.0006 | 0.0281 | -0.0343
